The values that follow come from patent US9073918B2, “Pyrazolo[4,3-b]pyridine-7-amine inhibitors of ALK5” (Takeda Pharmaceutical Company Limited, priority 2010, dated 2015).

In one experiment the target is T1, cellular TGF-β R1 ALK5 (Homo sapiens, UniProt P36897).
T1 construct: host or cells: CellSensor SBE-bla HEK 293T
T1 sequence (P36897 34-503): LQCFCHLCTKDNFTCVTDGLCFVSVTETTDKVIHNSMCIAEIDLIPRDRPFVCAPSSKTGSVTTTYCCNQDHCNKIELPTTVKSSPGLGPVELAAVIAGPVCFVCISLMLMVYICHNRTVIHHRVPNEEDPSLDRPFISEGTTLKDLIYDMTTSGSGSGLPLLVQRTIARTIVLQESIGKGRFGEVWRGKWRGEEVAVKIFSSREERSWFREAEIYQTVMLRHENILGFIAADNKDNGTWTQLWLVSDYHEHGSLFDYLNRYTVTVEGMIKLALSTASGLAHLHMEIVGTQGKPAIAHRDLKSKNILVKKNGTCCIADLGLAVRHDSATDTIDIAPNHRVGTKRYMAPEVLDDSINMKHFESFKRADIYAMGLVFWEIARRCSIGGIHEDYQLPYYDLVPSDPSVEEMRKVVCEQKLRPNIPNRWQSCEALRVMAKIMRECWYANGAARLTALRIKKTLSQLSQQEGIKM
In words: Cellular inhibition of ALK5 (CellSensor SBE-bla HEK 293T beta-lactamase reporter). To be noted: cellular inhibition of ALK5, SBE-bla HEK 293T cells, TGFb-1 stimulated 5 hours; average where measured in multiple experiments. It is filed as cell-based. The source says: Test compounds were screened for cellular TGF-β R1 ALK5 inhibition by use of a CellSensor® SBE-bla HEK 293T (K1550, Invitrogen Corp. Madison, Wis.) cell line. The CellSensor® SBE-bla HEK 293T cell line contains a beta-lactamase reporter gene under control of the SBE response element stably integrated into HEK 293T cells. The SBE response element is a DNA region that binds activated SMADs which results from the binding of TGF-β to, and subsequent activation of ALK5.
The assay procedure was as follows:
CellSensor® SBE-bla HEK 293T cell line were plated at 12,000 cells/well in 40 ul DMEM plus 5 ug/ml blasticidin into 384-well, black-wall, clear-bottom assay plate and incubated overnight.
The following day 5 uL of 10×, 2.5-fold serially diluted test compounds in DMSO were added into cells to a final compound concentration of 1× and DMSO concentration of 0.5%. Assay was incubated for 1 hour at 37° C., 5% CO2, 5 uL of 100 ng/mL TGFb-1 was then added to activate ALK5 and incubated for 5 hours at 37° C., 5% CO2, 10 uL of detector, LiveBLAzer FRET B/G substrate (CCF4-AM, Invitrogen Corp. Madison, Wis.) was added to cells and incubated for 2 hours at RT. Assay was measured using Spectramax, a bottom-read fluorescence plate reader, at excitation setting of 405 nm and emission settings of 460 nm and 530 nm.
Response is defined as the ratio of background corrected 460 nm emission values/background corrected 530 nm emission values. Cellular activity was defined as percent inhibition of uninhibited ALK5 activity (wells treated with DMSO+TGF-β). The percent inhibition of cellular ALK5 at a given compound concentration is defined as: 100%×[1−(response compound+TGF-β/response DMSO+TGF-β)] where response compound+TGF-β is defined as the activity in the presence of test compound and response DMSO+TGF-β is defined as the uninhibited cellular ALK5 activity. The pIC50 value (negative log of the molar concentration of the compound that produces 50% inhibition) of a test compound is calculated by non-linear least squares curve fitting. pIC50 values, the negative of the log of the IC50, are calculated by non-linear curve fitting of the compound concentrations and percent of inhibition to the standard pIC50 equation.
Where inhibition was measured in multiple experiments the value in Table 2 is an average. N.T. means not tested.

Another experiment concerns the target T2, TGF-β R1 ALK5 (Homo sapiens, UniProt P36897).
T2 construct: purchased Invitrogen PV5837
T2 sequence (P36897 34-503): T1 sequence (P36897 34-503)
The experiment can be described thus: In vitro inhibition of ALK5 (LanthaScreen activity assay, TR-FRET). It is filed as biochemical. The method, then:
Test compounds were screened for TGF-β R1 ALK5 inhibition by use of a LanthaScreen™ activity assay (PV5837 Invitrogen, Invitrogen Corp. Madison, Wis.).
In brief, the assay procedure was as follows:
Solutions of test compounds were prepared in DMSO and diluted two-fold serially.
Assays were incubated for 90 minutes at room temperature and then quenched by the addition of 60 mM EDTA and 8 nM Terbium labeled anti-pSMAD3 Antibody (M4337 from Invitrogen) giving a final concentration of 15 mM EDTA and 2 nM Terbium labeled anti-pSMAD3 Antibody. Phosphorylated peptide product was quantified by measuring an increase in TR-FRET on a BMG LABTECH PHERA star plus. Response is defined as the ratio of Channel A/Channel B. The response of a blank (uninhibited) using vehicle alone is also determined. Enzyme activity was defined as the response of uninhibited enzyme activity minus the response of assays containing no enzyme. The percent inhibition of ALK5 at a given compound concentration is defined as: 100%×[1−(response compound/response blank)]
where response compound is defined as the enzyme activity in the presence of test compound and response blank is defined as the uninhibited enzyme activity. The pIC50 value (negative log of the molar concentration of the compound that produces 50% inhibition) of a test compound is calculated by non-linear least squares curve fitting of the equation: Percent Inhibition=100%/(1+(10−pIC50/10 log [I])).
Where inhibition was measured in multiple experiments the value in Table 1 is an average. N.T. means not tested.
Background: In TR-FRET formats the signal depends on donor and acceptor labels being close together.

Take `Cc1cnc(-c2cc(Cl)ccc2F)cc1Nc1ccnc2cnn(C(=O)NC(C)C)c12` [Example 54, 7-(2-(5-chloro-2-fluorophenyl)-5-methylpyridin-4-ylamino)-N-isopropyl-1H-pyrazolo[4,3-b]pyridine-1-carboxamide]: the figures for the concentration for half-maximal inhibition (IC50) against cellular TGF-β R1 ALK5 and at TGF-β R1 ALK5 were 100 nM and 63.1 nM, respectively. With `Cc1ccc(F)c(-c2cc(Nc3ccnc4cn(C)nc34)ccn2)n1` [Example 66, N-(3′-fluoro-6′-methyl-2,2′-bipyridin-4-yl)-2-methyl-2H-pyrazolo[4,3-b]pyridin-7-amine], the IC50 at cellular TGF-β R1 ALK5 and against TGF-β R1 ALK5 was 39.8 nM each time. For the compound `CCn1cc2nccc(Nc3cc(-c4nc(C)ccc4F)ncc3C)c2n1` [Example 126, 2-ethyl-N-(3′-fluoro-5,6′-dimethyl-2,2′-bipyridin-4-yl)-2H-pyrazolo[4,3-b]pyridin-7-amine], the figures for the IC50 on cellular TGF-β R1 ALK5 and against TGF-β R1 ALK5 were 15.8 nM and 10 nM, respectively. Turning to `CCNC(=O)Cn1cc2nccc(Nc3cc(-c4nc(C)ccc4F)ncc3C)c2n1` [Example 154, N-ethyl-2-(7-(3′-fluoro-5,6′-dimethyl-2,2′-bipyridin-4-ylamino)-2H-pyrazolo[4,3-b]pyridin-2-yl)acetamide], the IC50 (as a rule, the concentration needed to halve the response being measured) against cellular TGF-β R1 ALK5 was 1580 nM; at TGF-β R1 ALK5, 31.6 nM.

Regarding “N-(2-(5-chloro-2-fluorophenyl)pyridin-4-yl)-2-(2-methoxyethyl)-2H-pyrazolo[4,3-b]pyridin-7-amine and N-(2-(5-chloro-2-fluorophenyl)pyridin-4-yl)-1-(2-methoxyethyl)-2H-pyrazolo[4,3-b]pyridin-7-amine [Example 35]”, the pIC50 (usually −log10 of the IC50, conventionally taken in molar units) at cellular TGF-β R1 ALK5 came out at 6.6; on TGF-β R1 ALK5 (in vitro inhibition of ALK5, 15 nM ALK5, 2 μM ATP, Fluorescein-SMAD3 peptide, 90 minutes at room temperature, average where measured in multiple experiments) it was 6.6. `CCn1ncc2nccc(Nc3ccnc(-c4nc(C)ccc4F)c3)c21` [Example 127, 1-ethyl-N-(3′-fluoro-6′-methyl-2,2′-bipyridin-4-yl)-1H-pyrazolo[4,3-b]pyridin-7-amine]: the results for the half-maximal inhibitory concentration (IC50) on cellular TGF-β R1 ALK5 and on TGF-β R1 ALK5 were 31.6 nM and 7.94 nM, respectively. The matching figures for `Cc1ccc(F)c(-c2cc(Nc3ccnc4cn(CC(=O)NC5CC5)nc34)c(C)cn2)n1` [Example 118, N-cyclopropyl-2-(7-(3′-fluoro-5,6′-dimethyl-2,2′-bipyridin-4-ylamino)-2H-pyrazolo[4,3-b]pyridin-2-yl)acetamide]: 794 nM and 100 nM. For the compound `CCNC(=O)n1ncc2nccc(Nc3nc(-c4cc(F)ccc4F)ncc3C)c21` [Example 97, 7-(2-(2,5-difluorophenyl)-5-methylpyrimidin-4-ylamino)-N-ethyl-1H-pyrazolo[4,3-b]pyridine-1-carboxamide], the IC50 against cellular TGF-β R1 ALK5 is 398 nM; on TGF-β R1 ALK5, 15.8 nM. On to `Cc1ccc(F)c(-c2cc(Nc3ccnc4cnn([C@H]5CCOC5)c34)c(C)cn2)n1` [Example 141, (S)—N-(3′-fluoro-5,6′-dimethyl-2,2′-bipyridin-4-yl)-1-(tetrahydrofuran-3-yl)-1H-pyrazolo[4,3-b]pyridin-7-amine], for which the IC50 was 158 nM against cellular TGF-β R1 ALK5 and 25.1 nM against TGF-β R1 ALK5. For `Cc1cnc(-c2cc(F)ccc2F)cc1Nc1ccnc2cn[nH]c12` [Example 108, N-(2-(2,5-difluorophenyl)-5-methylpyridin-4-yl)-1H-pyrazolo[4,3-b]pyridin-7-amine], the half-maximal inhibitory concentration (IC50) against cellular TGF-β R1 ALK5 is 7.94 nM; on TGF-β R1 ALK5, 1 nM.

Turning to `Cc1cnc(-c2cc(F)ccc2F)cc1Nc1ccnc2cn(CC(C)O)nc12` (stereo not shown) [Example 143, 1-(7-(2-(2,5-difluorophenyl)-5-methylpyridin-4-ylamino)-2H-pyrazolo[4,3-b]pyridin-2-yl)propan-2-ol], the values for the 50% inhibitory concentration (IC50) against cellular TGF-β R1 ALK5 and against TGF-β R1 ALK5 were 126 nM and 20 nM, respectively. Regarding `OC[C@@H](O)Cn1cc2nccc(Nc3ccnc(-c4cc(Cl)ccc4F)c3)c2n1` [Example 47, (S)-3-(7-(2-(5-chloro-2-fluorophenyl)pyridin-4-ylamino)-2H-pyrazolo[4,3-b]pyridin-2-yl)propane-1,2-diol], on cellular TGF-β R1 ALK5, half-maximal inhibition (IC50) required 398 nM. That is a sub-micromolar value. Take `Cc1ccc(F)c(-c2cc(Nc3ccnc4cnn(C)c34)c(C)cn2)n1` [Example 124, N-(3′-fluoro-5,6′-dimethyl-2,2′-bipyridin-4-yl)-1-methyl-1H-pyrazolo[4,3-b]pyridin-7-amine]: the results for the IC50 against cellular TGF-β R1 ALK5 and at TGF-β R1 ALK5 were 6.31 nM and 3.98 nM, respectively. For `Cc1ccc(F)c(-c2cc(Nc3ccnc4cn(C[C@@H](C)O)nc34)c(C)cn2)n1` [Example 150, (R)-1-(7-(3′-fluoro-5,6′-dimethyl-2,2′-bipyridin-4-ylamino)-2H-pyrazolo[4,3-b]pyridin-2-yl)propan-2-ol], the IC50 was 158 nM against cellular TGF-β R1 ALK5 and 7.94 nM at TGF-β R1 ALK5. Regarding `COCCn1ncc2nccc(Nc3ccnc(-c4nc(C)ccc4F)c3)c21` [Example 73, N-(3′-fluoro-6′-methyl-2,2′-bipyridin-4-yl)-1-(2-methoxyethyl)-1H-pyrazolo[4,3-b]pyridin-7-amine], the IC50 was 63.1 nM against cellular TGF-β R1 ALK5 and 15.8 nM at TGF-β R1 ALK5.

As to `CCNC(=O)Cn1ncc2nccc(Nc3cc(-c4cc(F)ccc4F)ncc3C)c21` [Example 155, 2-(7-(2-(2,5-difluorophenyl)-5-methylpyridin-4-ylamino)-1H-pyrazolo[4,3-b]pyridin-1-yl)-N-ethylacetamide], the IC50 on cellular TGF-β R1 ALK5 is 794 nM; against TGF-β R1 ALK5, 25.1 nM. In the case of `Cc1ccc(F)c(-c2cc(Nc3c(F)cnc4cn(CC(N)=O)nc34)c(C)cn2)n1` [Example 88, 2-(6-fluoro-7-(3′-fluoro-5,6′-dimethyl-2,2′-bipyridin-4-ylamino)-2H-pyrazolo[4,3-b]pyridin-2-yl)acetamide], the concentration for half-maximal inhibition (IC50) was 158 nM at cellular TGF-β R1 ALK5 and 10 nM against TGF-β R1 ALK5. Turning to `Cc1ccc(F)c(-c2cc(Nc3ccnc4cn(CCF)nc34)ccn2)n1` [Example 102, N-(3′-fluoro-6′-methyl-2,2′-bipyridin-4-yl)-2-(2-fluoroethyl)-2H-pyrazolo[4,3-b]pyridin-7-amine], the IC50 was 50.1 nM against cellular TGF-β R1 ALK5 and 15.8 nM on TGF-β R1 ALK5.

In the case of `Fc1ccc(Cl)cc1-c1cc(Nc2ccnc3cn(CC4CCCO4)nc23)ccn1` (stereo not shown) [Example 25, N-(2-(5-chloro-2-fluorophenyl)pyridin-4-yl)-2-((tetrahydrofuran-2-yl)methyl)-2H-pyrazolo[4,3-b]pyridin-7-amine], on TGF-β R1 ALK5, the IC50 is 2510 nM. At TGF-β R1 ALK5, `Cc1ccc(F)c(-c2cc(Nc3ccnc4cnn(C5CCN(S(C)(=O)=O)CC5)c34)ccn2)c1` [Example 78, N-(2-(2-fluoro-5-methylphenyl)pyridin-4-yl)-1-(1-(methylsulfonyl)piperidin-4-yl)-1H-pyrazolo[4,3-b]pyridin-7-amine] gave an IC50 of 631 nM.
